Each structure is given as a SMILES string. Calls of active or inactive are those of the source. No cut-off for these calls is given here.

In data set [1] the test system is Candida albicans. The data set is described as follows: Antimicrobial activity against Candida albicans at 50 ug/disk after 24 hrs by agar plate diffusion assay. It is filed as functional, organism-based.
Data set [2] relates to Bacillus subtilis. The data set is described as follows: Antimicrobial activity against Bacillus subtilis at 50 ug/disk after 24 hrs by agar plate diffusion assay. It counts as functional, organism-based.
Data set [3] relates to Artemia salina. The data set is described as follows: Toxicity in Artemia salina at 10 ppm. It is filed as organism-based. To be noted: in vivo.
For data set [4], the system named is Staphylococcus aureus. The data set is described as follows: Antimicrobial activity against Staphylococcus aureus at 50 ug/disk after 24 hrs by agar plate diffusion assay. It counts as functional, organism-based.
Data set [5] relates to Candida albicans. The data set is described as follows: Antimicrobial activity against Candida albicans at 100 ug/disk after 24 hrs by agar plate diffusion assay. It is filed as functional, organism-based.
The test system of data set [6] is Bacillus subtilis. Nature of the data set: Antimicrobial activity against Bacillus subtilis at 1000 ug/disk after 24 hrs by agar plate diffusion assay. It counts as functional, organism-based.
Data set [7] has as its system Escherichia coli. Nature of the data set: Antimicrobial activity against Escherichia coli at 100 ug/disk after 24 hrs by agar plate diffusion assay. It is filed as functional, organism-based.
The subject of data set [8] is Artemia salina. The data set is described as follows: Toxicity in Artemia salina at 100 ppm. It is filed as organism-based. Particulars: in vivo.
Data set [9] concerns Spodoptera littoralis. Nature of the data set: Insecticidal activity against Spodoptera littoralis larvae assessed as reduction of weight at 100 ppm in artificial diet after 7 days relative to control. It is filed as functional. Further details: scale not given: the % may be the effect or the level left.
Data set [10] has as its system Staphylococcus aureus. The data set is described as follows: Antimicrobial activity against Staphylococcus aureus at 100 ug/disk after 24 hrs by agar plate diffusion assay. It counts as functional, organism-based.
In data set [11] the test system is Spodoptera littoralis. Nature of the data set: Insecticidal activity against Spodoptera littoralis larvae assessed as survival rate at 100 ppm in artificial diet after 7 days relative to control. It is filed as functional.
Data set [12] concerns Escherichia coli. The data set is described as follows: Antimicrobial activity against Escherichia coli at 50 ug/disk after 24 hrs by agar plate diffusion assay. It counts as functional, organism-based.
Data set [13] has as its system Cortical neurone. Nature of the data set: Neuroprotective activity in Wistar rat cortical neuron assessed as reduction of quisqualic acid-induced intracellular calcium level at 1 ug/mL relative to control. It is filed as functional. On the set-up: scale not given: the % may be the effect or the level left.
The subject of data set [14] is Cortical neurone. Nature of the data set: Neuroprotective activity in Wistar rat cortical neuron assessed as reduction of L-glutamic acid-induced intracellular calcium level at 1 ug/mL relative to control. It counts as functional. On the set-up: scale not given: the % may be the effect or the level left. (In general: A change in cytosolic calcium serves as a functional read-out for many receptors and channels.)

Data set [15] relates to Cortical neurone. The data set is described as follows: Neuroprotective activity in Wistar rat cortical neuron assessed as reduction of quisqualic acid-induced intracellular calcium level at 5 ug/mL relative to control. Further details: scale not given: the % may be the effect or the level left. It is filed as functional.
Data set [16] has as its system Cortical neurone. Nature of the data set: Neuroprotective activity in Wistar rat cortical neuron assessed as reduction of L-glutamic acid-induced intracellular calcium level at 5 ug/mL relative to control. It is filed as functional. Further details: scale not given: the % may be the effect or the level left.

`C/C=C/c1oc2c(c(=O)c1O)N[C@H](O)C2=O` [PYRANONIGRIN A]: the result with Candida albicans [1], with Bacillus subtilis [2], with Staphylococcus aureus [4], in the data set with Candida albicans [5], with Bacillus subtilis [6] and in the data set with Escherichia coli [7] was inactive. The outcome in the data set with Staphylococcus aureus [10] and with Escherichia coli [12] was inactive. In addition, the Activity result with Artemia salina [3] is listed as “Non-toxic”; with Artemia salina [8], “Non-toxic”; in the data set on Spodoptera littoralis [9], 29%; in the data set on Spodoptera littoralis [11] it was 85%.
Regarding `C/C=C/c1oc2c(O)c(OC)n(O)c2c(=O)c1O` [PYRANONIGRIN C], the outcome with Candida albicans [1], in the data set on Bacillus subtilis [2], in the data set with Staphylococcus aureus [4], with Candida albicans [5], in the data set on Bacillus subtilis [6] and in the data set with Escherichia coli [7] was inactive. Moreover, the result in the data set with Staphylococcus aureus [10] and in the data set on Escherichia coli [12] was inactive. Also, the Activity result in the data set on Artemia salina [3] and in the data set with Artemia salina [8] was “Non-toxic” in each case.
As for `COc1cc([C@H](Cc2ccccc2)n2cc(C(N)=O)c(Cc3ccccc3)cc2=O)oc(=O)c1` [ASPERNIGRIN B], the Activity in the data set on Cortical neurone [13] is on record as 33.6%; with Cortical neurone [14], 25.5%; in the data set on Artemia salina [3] it was “Non-toxic”; in the data set with Artemia salina [8], “Non-toxic”; in the data set with Cortical neurone [15], 23.5%; in the data set on Cortical neurone [16] it was 55%. Moreover, the result in the data set on Candida albicans [1], in the data set with Bacillus subtilis [2], in the data set with Staphylococcus aureus [4], with Candida albicans [5], in the data set with Bacillus subtilis [6] and in the data set on Escherichia coli [7] was inactive. Moreover, the result in the data set on Staphylococcus aureus [10] and with Escherichia coli [12] was inactive.
`C/C=C/c1oc2c(OC)c(O)n(O)c2c(=O)c1O` [PYRANONIGRIN B]: the outcome with Candida albicans [1], with Bacillus subtilis [2], with Staphylococcus aureus [4], in the data set on Candida albicans [5], in the data set on Bacillus subtilis [6] and with Escherichia coli [7] was inactive. Further, the result with Staphylococcus aureus [10] and in the data set on Escherichia coli [12] was inactive. The Activity result with Artemia salina [3] and in the data set on Artemia salina [8] was “Non-toxic” each time.
As for `COc1cc(C)c2c(OC)c(-c3c(O)c4c(C)cc(O)cc4oc3=O)c(=O)oc2c1`, the result with Candida albicans [1], in the data set with Bacillus subtilis [2], with Staphylococcus aureus [4], with Candida albicans [5], in the data set with Bacillus subtilis [6] and in the data set on Escherichia coli [7] was inactive. Moreover, the result in the data set on Staphylococcus aureus [10] and in the data set with Escherichia coli [12] was inactive. In addition, the Activity result in the data set with Artemia salina [3] and in the data set on Artemia salina [8] was “Non-toxic” each time.
For `NC(=O)c1c[nH]c(=O)cc1Cc1ccccc1` [ASPERNIGRIN A], the result in the data set on Candida albicans [1], in the data set on Bacillus subtilis [2], in the data set with Staphylococcus aureus [4], with Candida albicans [5], in the data set with Bacillus subtilis [6] and in the data set on Escherichia coli [7] was inactive. Besides, the outcome in the data set with Staphylococcus aureus [10] and in the data set on Escherichia coli [12] was inactive. In addition, the Activity result with Artemia salina [3] and with Artemia salina [8] was “Non-toxic” each time.

These data come from ChEMBL document CHEMBL1148897, “New natural products from the sponge-derived fungus Aspergillus niger” (J Nat Prod, 2004).
